Consider one molecule from US11572590B2, “Methods for evaluating tumor cell spheroids using 3D microfluidic cell culture device” (Dana-Farber Cancer Institute, Inc., priority 2017, dated 2023).

Experiment in all cases: SelectScreen Kinase Profiling, single point inhibition and IC50 for off-target kinases
Type in all cases: biochemical

Experiment [1] addresses T1, off-target kinases (Homo sapiens, UniProt P25098).
T1 sequence (P25098 1-689): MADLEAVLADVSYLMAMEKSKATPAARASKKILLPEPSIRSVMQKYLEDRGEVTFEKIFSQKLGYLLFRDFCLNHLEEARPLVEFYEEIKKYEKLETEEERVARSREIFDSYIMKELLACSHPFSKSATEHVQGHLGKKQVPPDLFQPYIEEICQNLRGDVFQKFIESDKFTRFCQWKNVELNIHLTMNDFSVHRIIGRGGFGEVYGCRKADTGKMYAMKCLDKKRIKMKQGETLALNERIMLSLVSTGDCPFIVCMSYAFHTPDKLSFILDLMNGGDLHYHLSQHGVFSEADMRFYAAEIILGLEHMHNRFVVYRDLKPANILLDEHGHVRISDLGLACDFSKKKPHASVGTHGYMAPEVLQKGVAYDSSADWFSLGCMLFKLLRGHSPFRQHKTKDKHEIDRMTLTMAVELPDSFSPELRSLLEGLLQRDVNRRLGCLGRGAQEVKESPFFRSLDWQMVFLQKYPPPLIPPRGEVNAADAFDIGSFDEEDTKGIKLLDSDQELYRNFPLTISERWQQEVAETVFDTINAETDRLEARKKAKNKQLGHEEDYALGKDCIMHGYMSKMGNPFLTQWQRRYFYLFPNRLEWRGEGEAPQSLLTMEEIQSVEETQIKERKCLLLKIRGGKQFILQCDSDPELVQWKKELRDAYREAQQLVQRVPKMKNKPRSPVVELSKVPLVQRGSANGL
Particulars: ADRBK1 (GRK2), ZLYTE, ATP Km app.

The target in experiment [2] is T2, off-target kinases (Homo sapiens, UniProt Q32MK0).
T2 sequence (Q32MK0 1-819): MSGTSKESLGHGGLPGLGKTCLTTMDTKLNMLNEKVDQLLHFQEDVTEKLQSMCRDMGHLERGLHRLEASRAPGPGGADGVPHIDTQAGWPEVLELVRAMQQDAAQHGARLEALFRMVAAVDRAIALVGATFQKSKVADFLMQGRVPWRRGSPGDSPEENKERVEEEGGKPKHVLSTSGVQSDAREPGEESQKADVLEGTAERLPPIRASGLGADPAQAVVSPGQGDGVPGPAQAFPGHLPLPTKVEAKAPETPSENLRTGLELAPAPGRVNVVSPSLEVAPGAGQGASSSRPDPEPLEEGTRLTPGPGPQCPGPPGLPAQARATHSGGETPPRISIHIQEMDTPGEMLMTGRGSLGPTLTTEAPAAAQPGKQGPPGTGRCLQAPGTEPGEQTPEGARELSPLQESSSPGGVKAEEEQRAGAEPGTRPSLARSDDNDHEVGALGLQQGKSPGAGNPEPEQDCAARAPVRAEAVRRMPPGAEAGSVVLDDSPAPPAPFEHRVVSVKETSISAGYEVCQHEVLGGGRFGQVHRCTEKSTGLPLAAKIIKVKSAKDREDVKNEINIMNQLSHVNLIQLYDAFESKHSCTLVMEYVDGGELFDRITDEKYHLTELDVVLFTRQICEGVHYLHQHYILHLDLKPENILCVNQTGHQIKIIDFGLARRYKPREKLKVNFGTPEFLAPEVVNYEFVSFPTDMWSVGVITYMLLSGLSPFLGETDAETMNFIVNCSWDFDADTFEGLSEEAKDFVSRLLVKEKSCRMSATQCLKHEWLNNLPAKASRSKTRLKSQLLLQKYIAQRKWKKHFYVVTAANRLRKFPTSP
Particulars: MLCK (MLCK2), LanthaScreen Binding.

The target of experiment [3] is off-target kinases (Homo sapiens, UniProt Q99558). Conditions: MAP3K14 (NIK), LanthaScreen Binding.
For experiment [4], the target named is off-target kinases (Homo sapiens, UniProt Q9UEW8). Conditions: STK39 (STLK3), LanthaScreen.
Experiment [5] deals with off-target kinases (Homo sapiens, UniProt P22607, G697C). Conditions: FGFR3 G697C (mutant), LanthaScreen Binding.

Read-outs that look alike come from different tables or passages of the source.

Chain of off-target kinases (Homo sapiens, UniProt Q99558) (Q99558 whole entry): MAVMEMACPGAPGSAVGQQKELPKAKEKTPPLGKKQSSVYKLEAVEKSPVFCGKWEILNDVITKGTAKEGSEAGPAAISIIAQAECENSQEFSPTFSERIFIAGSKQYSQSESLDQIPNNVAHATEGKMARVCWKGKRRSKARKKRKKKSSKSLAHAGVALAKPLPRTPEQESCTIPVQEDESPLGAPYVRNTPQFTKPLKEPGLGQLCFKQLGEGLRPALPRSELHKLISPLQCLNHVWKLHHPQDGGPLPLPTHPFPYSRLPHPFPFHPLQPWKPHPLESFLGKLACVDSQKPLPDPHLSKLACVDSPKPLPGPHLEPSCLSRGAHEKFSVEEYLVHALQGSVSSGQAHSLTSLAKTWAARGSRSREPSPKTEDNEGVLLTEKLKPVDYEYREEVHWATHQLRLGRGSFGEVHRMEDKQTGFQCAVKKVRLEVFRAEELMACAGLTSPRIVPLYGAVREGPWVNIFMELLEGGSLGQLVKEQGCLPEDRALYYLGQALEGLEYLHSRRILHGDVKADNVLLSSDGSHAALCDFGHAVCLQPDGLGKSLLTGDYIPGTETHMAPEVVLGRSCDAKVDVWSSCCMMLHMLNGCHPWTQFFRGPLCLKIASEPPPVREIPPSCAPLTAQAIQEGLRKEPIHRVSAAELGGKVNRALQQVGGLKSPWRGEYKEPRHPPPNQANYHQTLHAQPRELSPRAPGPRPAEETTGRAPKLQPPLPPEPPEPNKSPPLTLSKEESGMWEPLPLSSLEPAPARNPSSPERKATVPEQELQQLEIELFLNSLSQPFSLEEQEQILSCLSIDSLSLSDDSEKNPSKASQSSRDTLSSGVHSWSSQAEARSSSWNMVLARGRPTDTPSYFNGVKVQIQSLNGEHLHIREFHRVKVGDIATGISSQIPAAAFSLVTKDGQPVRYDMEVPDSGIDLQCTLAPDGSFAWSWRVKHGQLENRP
Chain of off-target kinases (Homo sapiens, UniProt P22607, G697C) (P22607 23-806 G697C): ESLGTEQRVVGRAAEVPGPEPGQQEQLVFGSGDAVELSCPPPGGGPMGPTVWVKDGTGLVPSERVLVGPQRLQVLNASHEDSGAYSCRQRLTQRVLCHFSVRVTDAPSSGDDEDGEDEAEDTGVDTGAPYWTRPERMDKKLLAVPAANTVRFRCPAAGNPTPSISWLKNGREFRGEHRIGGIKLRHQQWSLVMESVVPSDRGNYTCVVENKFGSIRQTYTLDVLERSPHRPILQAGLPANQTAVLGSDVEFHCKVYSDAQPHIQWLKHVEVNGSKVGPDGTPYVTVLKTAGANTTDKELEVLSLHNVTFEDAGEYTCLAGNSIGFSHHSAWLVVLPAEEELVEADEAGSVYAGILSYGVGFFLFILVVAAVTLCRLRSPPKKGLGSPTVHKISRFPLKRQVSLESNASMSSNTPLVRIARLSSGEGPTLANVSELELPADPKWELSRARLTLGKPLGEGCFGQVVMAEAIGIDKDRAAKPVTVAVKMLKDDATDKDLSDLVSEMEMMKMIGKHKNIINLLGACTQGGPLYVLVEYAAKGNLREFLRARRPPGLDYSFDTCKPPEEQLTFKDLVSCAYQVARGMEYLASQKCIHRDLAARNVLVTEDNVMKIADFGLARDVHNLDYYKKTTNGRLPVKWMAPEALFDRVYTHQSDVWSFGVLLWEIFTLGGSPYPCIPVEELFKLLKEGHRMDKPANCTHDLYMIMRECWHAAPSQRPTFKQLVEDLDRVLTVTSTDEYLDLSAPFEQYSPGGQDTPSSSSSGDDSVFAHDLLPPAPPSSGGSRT

On to `N#Cc1cc(-c2ncnc(Nc3ccc(N4CCN(C5COC5)CC4)cc3)n2)ccc1OC1CCOCC1` [Compound 1, 5-(4-((4-(4-(oxetan-3-yl)piperazin-1-yl)phenyl)amino)-1,3,5-triazin-2-yl)-2-((tetrahydro-2H-pyran-4-yl)oxy)benzonitrile], for which the inhibition at off-target kinases [1] (read-out: % Inhibition 1) worked out at 3%; on off-target kinases [1] (read-out: % Inhibition 2), 7%; at off-target kinases [1] (read-out: % Inhibition Avg), 5%; on off-target kinases [2] (read-out: % Inhibition 1), 92%; at off-target kinases [2] (read-out: % Inhibition 2), 93%; on off-target kinases [2] (read-out: % Inhibition Avg), 93%. The inhibition on off-target kinases [3] (read-out: % Inhibition 1) turned out to be 20%; on off-target kinases [3] (read-out: % Inhibition 2) it was 24%; on off-target kinases [3] (read-out: % Inhibition Avg) it was 22%; at off-target kinases [4] (read-out: % Inhibition 1), 10%; at off-target kinases [4] (read-out: % Inhibition 2), 9%; at off-target kinases [4] (read-out: % Inhibition Avg) it was 10%. Moreover, the figures for the inhibition at off-target kinases [5] (read-out: % Inhibition 1), on off-target kinases [5] (read-out: % Inhibition 2) and on off-target kinases [5] (read-out: % Inhibition Avg) were 13%, 4% and 8%, respectively.
